The source made the active and inactive calls.
How the values were obtained:
[1] = target: Induced myeloid leukemia cell differentiation protein Mcl-1 (Homo sapiens, UniProt Q07820); type: functional
Leucine aminopeptidase = target: T1, Leucine aminopeptidase (Plasmodium falciparum 3D7, UniProt Q8IL11); assay: P. falciparum M17LAP inhibitors, primary screen, biochemical, fluorogenic H-Leu-NHMec substrate, 1536-well (AID 1619); type: functional
T1 sequence (Q8IL11 whole entry): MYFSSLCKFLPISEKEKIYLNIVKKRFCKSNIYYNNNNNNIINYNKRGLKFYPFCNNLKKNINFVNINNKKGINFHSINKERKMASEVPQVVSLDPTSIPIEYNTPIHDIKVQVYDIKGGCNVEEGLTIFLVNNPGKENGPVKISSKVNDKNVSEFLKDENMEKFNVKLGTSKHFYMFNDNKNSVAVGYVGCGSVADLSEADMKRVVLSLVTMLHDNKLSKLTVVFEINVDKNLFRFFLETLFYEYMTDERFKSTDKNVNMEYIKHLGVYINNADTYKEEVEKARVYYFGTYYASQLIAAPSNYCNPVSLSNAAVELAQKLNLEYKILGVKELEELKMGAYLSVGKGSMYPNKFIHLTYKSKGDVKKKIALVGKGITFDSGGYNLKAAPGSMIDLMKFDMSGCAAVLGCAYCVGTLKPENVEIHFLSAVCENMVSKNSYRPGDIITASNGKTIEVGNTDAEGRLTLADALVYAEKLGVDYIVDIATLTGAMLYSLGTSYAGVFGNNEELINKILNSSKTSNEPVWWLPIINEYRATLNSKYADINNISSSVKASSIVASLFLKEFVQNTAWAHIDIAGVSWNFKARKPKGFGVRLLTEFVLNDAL

[2] = microbe, parasite or virus in culture; type: functional; conditions: Mycobacterium tuberculosis
[3] = loss of viability in HepG2 cells – cell-based, CellTiter-Glo, cherry-picked, cytotoxicity control for Shn3 inhibitor project, dose response (AID 624134); type: functional
[4] = HIV-1 AD8 envelope cell-cell fusion blockers – cherry-pick, dose response (AID 652062); type: functional, cell-based;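 further: luciferase signal from cell-cell fusion driven by HIV-1 clade B AD8 Env; potency is for inhibitors of fusion seen as a drop in luminescence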
[5] = reduction of Shn3 3'UTR-driven luciferase in osteoblasts – cell-based, Clone20 osteoblasts, firefly luciferase, cherry-picked, dose response (AID 624132); type: functional;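 further: firefly luciferase luminescence from reporter carrying the Shn3 3'UTR in osteoblasts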
[6] = HPDE-C7 pancreatic duct cell viability loss – fluorescence, HTS (AID 430); type: functional, cell-based; conditions: Homo sapiens
[7] = viability loss of HPDE-C7K cells – cell-based, fluorescence, HTS, primary screen (AID 431); type: functional; conditions: Homo sapiens
[8] = blockers of HIV-1 envelope-mediated cell-cell fusion – cherry-pick, dose response (AID 652057); type: functional, cell-based
[9] = non-specific 3'UTR reporter inhibition in Clone20-Shn3RL – cell-based, Renilla luciferase, cherry-picked, counter-screen for Shn3 inhibitor project, dose response (AID 624133); type: functional
HEK293 = assay: EBV LMP1 TES2 canonical NF-kB signalling blockers – cell-based, HEK293, luciferase, cherry-pick, dose response (AID 588343); type: functional; conditions: Homo sapiens
[10] = viability loss in CEM21 cells – cell-based, CellTiter-Glo luminescence, cherry-picked, cytotoxicity control for viral fusion inhibitor project, dose response (AID 652042); type: functional;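 further: potency for signal decrease meaning cytotoxicity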
[11] = blockers of HIV-1 ZM109 envelope-driven cell-cell fusion – HeLa effector, CEM target cells, luciferase, cherry-pick, dose response (AID 652058); type: functional, cell-based;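 further: luciferase signal from HIV-1 Env mediated cell-cell fusion of effector and target cells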
[12] = system: Streptococcus sp. 'group A'; assay: Streptococcus pyogenes SK(-)GAS viability under kanamycin – luminescence, BacTiterGlo, confirmation, counter-screen for streptokinase expression inhibitor project, dose response (AID 1900); type: functional, organism-based
Streptococcus = assay: GAS UMAA2166 growth inhibition – luminescence, BacTiterGlo, counter-screen for streptokinase expression inhibitor project, dose response (AID 1915); type: functional, organism-based;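 further: potency for reduction of bacterial viability or growth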
INS1 = assay: INS-1E survival protection against cytokine death – cell-based, luminescence, retest, dose response (AID 449756); type: functional; conditions: Rattus norvegicus;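 further: cell death triggered by IL-1 beta plus TNF-alpha plus IFN-gamma mixture; protective hits raise ATP signal compared with cytokine alone wells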
Caspase-6 = target: T2, Caspase-6 (Homo sapiens, UniProt P55212); assay: inhibition of CASP6 peptide cleavage – biochemical, VEID-R110 fluorescence, cherry-pick, dose response (AID 720632)
T2 sequence (P55212 whole entry): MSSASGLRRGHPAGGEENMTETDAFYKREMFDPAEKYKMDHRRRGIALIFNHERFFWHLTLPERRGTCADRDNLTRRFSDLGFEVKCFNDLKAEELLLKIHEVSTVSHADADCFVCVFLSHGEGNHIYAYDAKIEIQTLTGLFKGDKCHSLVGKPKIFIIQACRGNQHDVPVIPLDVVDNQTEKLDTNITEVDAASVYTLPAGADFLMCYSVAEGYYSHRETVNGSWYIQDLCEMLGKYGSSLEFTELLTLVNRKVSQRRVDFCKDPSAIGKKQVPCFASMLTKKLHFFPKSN

Galanin receptor type 3 = target: T3, Galanin receptor type 3 (Homo sapiens, UniProt O60755); assay: Fluorescence-based cell-based primary high throughput dose response assay to identify antagonists of the Galanin Receptor 3 (GalR3).; type: functional
T3 sequence (O60755 whole entry): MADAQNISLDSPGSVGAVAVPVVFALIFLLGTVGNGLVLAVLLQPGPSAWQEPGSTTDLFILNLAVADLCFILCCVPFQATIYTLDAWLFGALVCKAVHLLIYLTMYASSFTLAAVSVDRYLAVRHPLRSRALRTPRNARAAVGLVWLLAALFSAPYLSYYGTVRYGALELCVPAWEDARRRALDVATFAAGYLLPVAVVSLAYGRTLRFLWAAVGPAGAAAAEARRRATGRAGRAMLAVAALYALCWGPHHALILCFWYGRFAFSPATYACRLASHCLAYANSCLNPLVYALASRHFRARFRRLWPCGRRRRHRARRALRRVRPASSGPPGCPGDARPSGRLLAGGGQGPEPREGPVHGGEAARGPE

[13] = target: T4, COUP transcription factor 2 (Homo sapiens, UniProt P24468); assay: Luminescence-based cell-based high throughput dose response assay to identify inhibitors of COUP-TFII (NR2F2).; type: functional;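 further: HEK293 cells transiently cotransfected with COUP-TFII expression vector and reporter; luciferase reporter luminescence driven by COUP-TFII from the pX2-168 reporter plasmid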
T4 sequence (P24468 whole entry): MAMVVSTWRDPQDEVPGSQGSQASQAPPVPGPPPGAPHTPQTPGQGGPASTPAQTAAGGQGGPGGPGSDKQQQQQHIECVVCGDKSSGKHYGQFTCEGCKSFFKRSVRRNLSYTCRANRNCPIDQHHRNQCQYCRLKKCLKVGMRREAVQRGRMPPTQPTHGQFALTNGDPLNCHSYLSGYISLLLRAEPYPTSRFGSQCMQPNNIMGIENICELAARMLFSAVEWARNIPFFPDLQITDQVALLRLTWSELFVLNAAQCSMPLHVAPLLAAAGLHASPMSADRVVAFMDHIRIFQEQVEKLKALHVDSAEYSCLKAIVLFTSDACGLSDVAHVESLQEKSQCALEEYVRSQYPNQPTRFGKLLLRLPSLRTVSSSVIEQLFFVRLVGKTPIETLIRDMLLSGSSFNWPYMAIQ

[14] = viability of HCT116 lacking mutant beta-catenin – cell-based, human colon tumor, dose response (AID 1045); type: functional;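 further: HCT116 colon tumor cells with beta catenin knocked out; cells exposed to compound for 60 hours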
[15] = viability of PTEN-deleted HCT116 cells – cell-based, HCT116 PTEN knockout, dose response (AID 1047); type: functional;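 further: HCT116 colon tumor cells with PTEN knocked out; cells exposed to compound for 60 hours before readout; potency for loss of cell viability measured by luminescence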
[16] = Dd2 malaria parasite growth inhibition potency – SYBR Green, dry powder samples, dose response (AID 1159566); type: functional, cell-based;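 further: potency for growth inhibition with lower SYBR green DNA signal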
[17] = toxicity to human HepG2 hepatoma cells – cell-based, plate reader, dry powder samples, cytotoxicity control, dose response (AID 1159569); type: functional;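 further: inhibitor potency with signal falling toward the positive control level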
[18] = P. falciparum Dd2 growth inhibitors, dose response, SYBR Green, cherry-picked samples (AID 1159567); type: functional, cell-based
[19] = growth inhibition of PfATP4-mutant resistant parasites – NITD609-resistant line, SYBR Green, dry powder, dose response (AID 1159571); type: functional, cell-based;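 further: parasites synchronized at ring stage by sorbitol before testing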
[20] = growth inhibition of yeast DHODH-expressing 3D7 parasites – SYBR Green, dry powder samples, dose response (AID 1159570); type: functional, cell-based;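 further: parasite growth measured after 72 hours of compound exposure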
[21] = target: T5, Short transient receptor potential channel 4 (Mus musculus, UniProt Q9QUQ5); assay: calcium entry via TRPC4 opening agents – cell-based, HEK293 TRPC4/mu-opioid, Fluo-4 calcium, dose response (AID 434937); type: functional
T5 sequence (Q9QUQ5 whole entry): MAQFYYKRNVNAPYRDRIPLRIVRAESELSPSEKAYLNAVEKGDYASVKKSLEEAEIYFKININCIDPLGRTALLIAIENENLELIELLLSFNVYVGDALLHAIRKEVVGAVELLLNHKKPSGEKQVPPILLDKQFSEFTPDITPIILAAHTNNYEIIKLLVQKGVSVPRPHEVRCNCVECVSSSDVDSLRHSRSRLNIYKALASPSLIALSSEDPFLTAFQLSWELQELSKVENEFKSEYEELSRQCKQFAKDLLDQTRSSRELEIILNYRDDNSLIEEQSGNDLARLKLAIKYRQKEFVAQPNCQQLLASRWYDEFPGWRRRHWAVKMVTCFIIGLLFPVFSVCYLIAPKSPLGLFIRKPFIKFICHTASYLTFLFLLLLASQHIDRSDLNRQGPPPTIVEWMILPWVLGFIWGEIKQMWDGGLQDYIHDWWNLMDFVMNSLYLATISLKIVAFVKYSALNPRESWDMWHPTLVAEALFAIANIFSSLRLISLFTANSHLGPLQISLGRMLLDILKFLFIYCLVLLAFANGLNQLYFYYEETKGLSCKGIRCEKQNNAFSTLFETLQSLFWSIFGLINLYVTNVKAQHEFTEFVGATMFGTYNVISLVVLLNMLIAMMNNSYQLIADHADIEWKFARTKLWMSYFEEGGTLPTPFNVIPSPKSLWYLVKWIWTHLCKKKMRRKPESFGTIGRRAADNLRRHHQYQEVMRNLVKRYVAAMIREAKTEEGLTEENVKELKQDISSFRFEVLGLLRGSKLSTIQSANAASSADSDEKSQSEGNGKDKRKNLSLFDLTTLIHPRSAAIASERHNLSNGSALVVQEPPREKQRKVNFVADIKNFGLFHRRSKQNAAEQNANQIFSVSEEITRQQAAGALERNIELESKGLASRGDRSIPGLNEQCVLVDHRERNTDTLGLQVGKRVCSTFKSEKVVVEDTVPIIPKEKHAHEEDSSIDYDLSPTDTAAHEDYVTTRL

[22] = HEK-293T viability loss after treatment – luminescence, T-cell screen hits, cytotoxicity control for TCR NF-kB inhibitor project, dose response (AID 489026); type: functional, cell-based;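 further: cells exposed to compound about 14 hours before the viability readout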

Sequence of Induced myeloid leukemia cell differentiation protein Mcl-1 (Q07820 whole entry): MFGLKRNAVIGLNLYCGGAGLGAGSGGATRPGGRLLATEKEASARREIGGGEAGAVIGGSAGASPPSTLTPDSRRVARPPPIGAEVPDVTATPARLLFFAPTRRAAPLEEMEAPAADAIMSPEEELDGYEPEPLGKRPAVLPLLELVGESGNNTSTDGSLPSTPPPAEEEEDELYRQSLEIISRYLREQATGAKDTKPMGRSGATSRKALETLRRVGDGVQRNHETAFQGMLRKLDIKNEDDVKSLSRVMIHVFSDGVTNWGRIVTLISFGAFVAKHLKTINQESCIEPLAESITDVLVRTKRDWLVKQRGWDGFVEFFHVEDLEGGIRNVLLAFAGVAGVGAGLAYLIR

NC(=O)c1c(Nc2nc3c(F)cccc3s2)sc2c1CCCC2
IC50 [1]: 2.76 µM (active)
IC50 (Leucine aminopeptidase): 81.8 µM (active)

Cc1ccc2[nH]c3c(N4CCN(Cc5ccccc5)CC4)ncnc3c2c1
CC50 [2]: 35.2 µM (active)
AC50 [3]: 30.8 µM (active)
AC50 [4]: 19.5 µM (active)
AC50 [5]: 4.18 µM (active)
EC50 [6]: 14.1 µM (active)
EC50 [7]: 16.8 µM (active)
AC50 [8]: 8.98 µM (active)
AC50 [9]: 20.3 µM (active)
AC50 (HEK293): 11.8 µM (active)
AC50 [10]: 26.2 µM (active)
AC50 [11]: 0.671 µM (active)

O=C(CC(Nc1cccc(Cl)c1Cl)C(=O)O)c1ccccc1 (stereo unspecified)
IC50 (Leucine aminopeptidase): 14.2 µM (active)

Oc1ccc(COCc2ccccc2)c2cccnc12
EC50 [6]: 10.4 µM (active)
EC50 [7]: 8.49 µM (active)
EC50 [12]: 2.14 µM (active)
EC50 (Streptococcus): 3.25 µM (active)
AC50 (INS1): 1.77 µM (active)

CCCCC(=O)O[C@H]1CC[C@H]2[C@@H]3CCc4cc(O)ccc4[C@H]3CC[C@]12C [ESTRADIOL VALERATE]
EC50 [6]: 18.9 µM (active)
EC50 [7]: > 20 µM (not active)
EC50 [12]: 2.3 µM (active)
EC50 (Streptococcus): 2.29 µM (active)

CC(C)CN1C(=O)NC2(CCCc3ccccc32)C1=O (stereo unspecified)
AC50 (Caspase-6): 51.7 µM (active)

CCc1ccc(-c2nn(Cc3ccccc3)cc2/C=C/C(=O)O)cc1
IC50 (Leucine aminopeptidase): 31.5 µM (active)

c1ccc(CNc2ncnc3ccccc23)cc1
IC50 (Galanin receptor type 3): 2.42 µM (active)
IC50 [13]: 10.3 µM (inactive)

COc1cc(C(=O)OCC(=O)N2CCCC2=O)cc(OC)c1C
AC50 (Caspase-6): 18.5 µM (active)

O=C(Oc1ccccc1)c1cccc2cccnc12
EC50 [6]: 5.75 µM (active)
EC50 [7]: > 20 µM (not active)
EC50 [14]: 11.5 µM (active)
EC50 [15]: 11.3 µM (active)

COc1ccccc1NC(=O)N1CCCCN2[C@H](CO)[C@H](c3ccc(C#Cc4ccccc4)cc3)[C@@H]2C1
AC50 [16]: 0.118 µM (active)
AC50 [17]: > 100 µM (inactive)
AC50 [18]: < 0.3 µM (active)
AC50 [19]: 0.0817 µM (active)
AC50 [20]: 0.0745 µM (active)

O=C(Nc1ccncc1)c1ccc(Cl)c(S(=O)(=O)N2CCc3ccccc32)c1
AC50 [3]: 6.33 µM (active)
AC50 [4]: 2.18 µM (active)
AC50 [5]: 3.19 µM (active)
AC50 [9]: 16.6 µM (active)
IC50 [13]: 4.67 µM (active)
EC50 [21]: 5.31 µM (active)
AC50 [10]: 51.1 µM (active)
IC50 [22]: 62.9 µM (inactive)

CO[C@H]1CN(C)C(=O)c2cc(NC(=O)c3ccccc3F)ccc2OC[C@H](C)N(C(=O)c2ccccc2F)C[C@H]1C
AC50 [16]: 1.78 µM (active)
AC50 [17]: > 100 µM (inactive)
AC50 [18]: 2.47 µM (active)
AC50 [19]: 1.53 µM (active)
AC50 [20]: 2.93 µM (active)

O=P(NS(=O)(=O)c1ccc(Br)cc1)(Oc1ccccc1)Oc1ccccc1
IC50 (Leucine aminopeptidase): 30.1 µM (active)

CO[C@H]1CN(C)C(=O)c2ccc(NC(=O)Nc3ccc(C(F)(F)F)cc3)cc2OC[C@H](C)NC[C@H]1C
AC50 [16]: 2.16 µM (active)
AC50 [17]: 26.9 µM (active)
AC50 [18]: 3.01 µM (active)
AC50 [19]: 2.17 µM (active)
AC50 [20]: 1.37 µM (active)

COc1ccc(-c2ccccc2[C@H]2[C@@H](C#N)N(C(=O)NC3CCCCC3)[C@H]2CO)cc1
AC50 [16]: 3.88 µM (active)
AC50 [17]: > 100 µM (inactive)
AC50 [18]: 3.13 µM (active)
AC50 [19]: 8.21 µM (active)
AC50 [20]: 4.54 µM (active)

From ChEMBL document CHEMBL1201862, “PubChem BioAssay data set” (2004)
